Test results reported in ChEMBL document CHEMBL1201862, “PubChem BioAssay data set” (2004).
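Test compounds were applied to cells in 96-well plates for 48 hours at 5 doses. GI50: concentration for 50% inhibition of growth.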 Active and inactive are the calls of the source. Rule as the data show it: active = GI50 up to about 1.1 µM and inactive = higher.

Tests used:
Test in all cases: growth of human tumour cells (NCI), 48 h
[1] = test system: MOLT-4
[2] = test system: RPMI-8226
[3] = test system: SR
[4] = test system: IGROV-1
[5] = test system: RXF 393
[6] = test system: DU-145
[7] = test system: BT-549
[8] = test system: PC-3
[9] = test system: HOP-62
[10] = test system: NCI/ADR-RES
[11] = test system: OVCAR-4
[12] = test system: SNB-75
[13] = test system: COLO 205
[14] = test system: SNB-19
[15] = test system: NCI-H23
[16] = test system: HCC 2998
[17] = test system: HT-29
[18] = test system: TK-10
[19] = test system: A498

SMILES	GI50 [1]	GI50 [2]	GI50 [3]	GI50 [4]	GI50 [5]	GI50 [6]	GI50 [7]	GI50 [8]	GI50 [9]	GI50 [10]	GI50 [11]	GI50 [12]	GI50 [13]	GI50 [14]	GI50 [15]	GI50 [16]	GI50 [17]	GI50 [18]	GI50 [19]
CN(/N=C/c1cccs1)c1ccc(Cl)cc1[N+](=O)[O-]	17.1 µM (inactive)	22 µM (inactive)	5.71 µM (inactive)	> 100 µM (inactive)	23.6 µM (inactive)	64.4 µM (inactive)	40.6 µM (inactive)	38.4 µM (inactive)	40.9 µM (inactive)	18.9 µM (inactive)	59.3 µM (inactive)	30.8 µM (inactive)	> 10 µM (inactive)	56.2 µM (inactive)	35.3 µM (inactive)	25.8 µM (inactive)	25.9 µM (inactive)	35.2 µM (inactive)	–
O=C(c1ccc(Cl)cc1)N(Cc1cccnc1)C(=S)N(Cc1cccnc1)C(=O)c1ccc(Cl)cc1	16.1 µM (inactive)	13.2 µM (inactive)	50.4 µM (inactive)	–	43.6 µM (inactive)	31.1 µM (inactive)	23.7 µM (inactive)	30.3 µM (inactive)	50.7 µM (inactive)	31.2 µM (inactive)	23.6 µM (inactive)	37.1 µM (inactive)	20.5 µM (inactive)	41.5 µM (inactive)	36.1 µM (inactive)	25.9 µM (inactive)	26.1 µM (inactive)	53 µM (inactive)	30.5 µM (inactive)
O=[N+]([O-])C(=C(Nc1ccccc1)Nc1ccccc1)/C(Cl)=C(\Cl)[N+](=O)[O-]	2.43 µM (inactive)	3.15 µM (inactive)	1.11 µM (active)	–	1.89 µM (inactive)	2.65 µM (inactive)	3.71 µM (inactive)	5.65 µM (inactive)	10.3 µM (inactive)	3.81 µM (inactive)	6.62 µM (inactive)	7.57 µM (inactive)	2.67 µM (inactive)	12.9 µM (inactive)	3.04 µM (inactive)	12.2 µM (inactive)	3.27 µM (inactive)	5.16 µM (inactive)	19.7 µM (inactive)
CCCCc1ccc(Nc2nc3c(ncn3C3OC(COC(C)=O)C(OC(C)=O)C3OC(C)=O)c(=O)[nH]2)cc1 (stereo unspecified)	18.7 µM (inactive)	20.4 µM (inactive)	13.5 µM (inactive)	17.5 µM (inactive)	19.1 µM (inactive)	31.3 µM (inactive)	17.8 µM (inactive)	19.7 µM (inactive)	17.8 µM (inactive)	> 100 µM (inactive)	21.9 µM (inactive)	–	17.6 µM (inactive)	27.7 µM (inactive)	17.4 µM (inactive)	20.7 µM (inactive)	19.1 µM (inactive)	45.3 µM (inactive)	> 100 µM (inactive)
c1cc(CCN2CCCCC2)ccn1	35.2 µM (inactive)	> 100 µM (inactive)	33.3 µM (inactive)	> 100 µM (inactive)	> 100 µM (inactive)	> 100 µM (inactive)	> 100 µM (inactive)	> 100 µM (inactive)	> 100 µM (inactive)	> 100 µM (inactive)	> 100 µM (inactive)	> 100 µM (inactive)	> 100 µM (inactive)	> 100 µM (inactive)	> 100 µM (inactive)	–	> 100 µM (inactive)	> 100 µM (inactive)	> 100 µM (inactive)
CN(C)CCN1C(=O)CC[C@@]2(C)C1=CC[C@@H]1[C@@H]2CC[C@@]2(C)[C@H]1CC[C@]2(C)O	> 100 µM (inactive)	> 100 µM (inactive)	> 100 µM (inactive)	> 100 µM (inactive)	> 100 µM (inactive)	> 100 µM (inactive)	> 100 µM (inactive)	> 100 µM (inactive)	> 100 µM (inactive)	> 100 µM (inactive)	> 100 µM (inactive)	> 100 µM (inactive)	> 100 µM (inactive)	> 100 µM (inactive)	> 100 µM (inactive)	–	39.8 µM (inactive)	> 100 µM (inactive)	> 100 µM (inactive)
COCn1cnc2c(=O)n(-c3ccc(OC)cc3)c(=S)n(-c3ccc(OC)cc3)c21	> 100 µM (inactive)	> 100 µM (inactive)	> 100 µM (inactive)	> 100 µM (inactive)	> 100 µM (inactive)	> 100 µM (inactive)	> 100 µM (inactive)	> 100 µM (inactive)	> 100 µM (inactive)	> 100 µM (inactive)	89.3 µM (inactive)	> 100 µM (inactive)	> 100 µM (inactive)	–	> 100 µM (inactive)	> 100 µM (inactive)	> 100 µM (inactive)	> 100 µM (inactive)	> 100 µM (inactive)
